Source: ChEMBL document CHEMBL3085731, “Novel water-soluble prodrugs of acyclovir cleavable by the dipeptidyl-peptidase IV (DPP IV/CD26) enzyme” (Eur J Med Chem, 2013)
In brackets after ≈: the same amount, converted by molar mass. Residues, ends and D or L forms follow the SMILES beside them. *: point of attachment. X1 = O=c1[nH]c(N*)nc2c1ncn2COCCO

How the values were obtained:
Human alphaherpesvirus 2 = assay: Antiviral activity against Herpes simplex virus 2 G infected in HEL cells assessed as inhibition of virus-induced cytopathicity; type: functional, organism-based; conditions: Human alphaherpesvirus 2, strain G
Human alphaherpesvirus 1 [1] = assay: Antiviral activity against thymidine kinase-deficient ACV-resistant Herpes simplex virus 1 KOS infected in HEL cells assessed as inhibition of virus-induced cytopathicity; type: functional, organism-based; conditions: Human alphaherpesvirus 1, KOS
[2] = Solubility of the compound in deionized water at pH 5.5 after overnight incubation by HPLC analysis; type: physicochemical
[3] = Oral bioavailability in human; type: ADME, organism-based; conditions: in vivo
Dipeptidyl peptidase 4 [4] = target: Dipeptidyl peptidase 4 (Bos taurus, UniProt P81425); assay: Prodrug conversion assessed as dipeptidyl peptidase 4-mediated ACV formation in bovine serum at 50 uM after 2 hrs by HPLC analysis; type: ADME; conditions: cattle
[5] = Prodrug conversion in PBS buffer assessed as ACV formation at 50 uM after 2 hrs by HPLC analysis; type: ADME
Dipeptidyl peptidase 4 [6] = target: T1, Dipeptidyl peptidase 4 (Homo sapiens, UniProt P27487); assay: Prodrug conversion assessed as dipeptidyl peptidase 4-mediated ACV formation in human serum at 50 uM after 2 hrs by HPLC analysis; type: ADME
[7] = Prodrug conversion in PBS buffer assessed as ACV formation at 50 uM after 24 hrs by HPLC analysis; type: ADME
Dipeptidyl peptidase 4 [8] = target: T1, Dipeptidyl peptidase 4; assay: Prodrug conversion assessed as dipeptidyl peptidase 4-mediated ACV formation in human serum at 50 uM after 1 hr by HPLC analysis; type: ADME
[9] = Chemical stability of the compound in sodium phosphate buffer at pH 3.2 after 6 hrs; type: physicochemical; conditions: pH 3.2, 6 h
Human alphaherpesvirus 1 [10] = assay: Antiviral activity against Herpes simplex virus 1 KOS infected in HEL cells assessed as inhibition of virus-induced cytopathicity; type: functional, organism-based; conditions: Human alphaherpesvirus 1, KOS
Dipeptidyl peptidase 4 [11] = target: T1, Dipeptidyl peptidase 4; assay: Prodrug conversion assessed as dipeptidyl peptidase 4-mediated ACV formation in human serum at 50 uM after 24 hrs by HPLC analysis; type: ADME
Dipeptidyl peptidase 4 [12] = target: T1, Dipeptidyl peptidase 4; assay: Prodrug conversion assessed as human dipeptidyl peptidase 4-mediated Val-ACV formation at 50 uM after 24 hrs by HPLC analysis; type: ADME; conditions: isolated protein

T1 sequence (P27487 whole entry): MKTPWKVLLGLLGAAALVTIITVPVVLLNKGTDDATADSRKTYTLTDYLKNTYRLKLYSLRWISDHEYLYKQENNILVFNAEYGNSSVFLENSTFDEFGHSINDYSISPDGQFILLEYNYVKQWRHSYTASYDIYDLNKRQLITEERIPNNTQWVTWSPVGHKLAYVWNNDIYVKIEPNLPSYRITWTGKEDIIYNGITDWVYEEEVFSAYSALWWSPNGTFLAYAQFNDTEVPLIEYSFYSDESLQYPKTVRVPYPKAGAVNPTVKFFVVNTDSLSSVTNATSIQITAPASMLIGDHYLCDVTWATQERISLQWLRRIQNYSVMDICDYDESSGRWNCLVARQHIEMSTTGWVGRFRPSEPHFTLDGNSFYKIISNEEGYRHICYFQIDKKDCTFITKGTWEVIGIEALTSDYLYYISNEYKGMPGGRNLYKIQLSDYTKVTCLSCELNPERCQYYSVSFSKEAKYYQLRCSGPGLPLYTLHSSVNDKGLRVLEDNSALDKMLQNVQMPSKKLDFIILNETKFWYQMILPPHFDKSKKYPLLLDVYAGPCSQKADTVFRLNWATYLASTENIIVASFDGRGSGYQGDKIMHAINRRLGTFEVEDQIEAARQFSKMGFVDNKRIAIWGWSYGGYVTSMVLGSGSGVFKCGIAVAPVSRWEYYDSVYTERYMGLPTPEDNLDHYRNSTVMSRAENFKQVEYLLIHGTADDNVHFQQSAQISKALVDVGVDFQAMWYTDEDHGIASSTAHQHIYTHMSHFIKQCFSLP
Dipeptidyl peptidase 4 (Bos taurus, UniProt P81425), sequence (P81425 whole entry): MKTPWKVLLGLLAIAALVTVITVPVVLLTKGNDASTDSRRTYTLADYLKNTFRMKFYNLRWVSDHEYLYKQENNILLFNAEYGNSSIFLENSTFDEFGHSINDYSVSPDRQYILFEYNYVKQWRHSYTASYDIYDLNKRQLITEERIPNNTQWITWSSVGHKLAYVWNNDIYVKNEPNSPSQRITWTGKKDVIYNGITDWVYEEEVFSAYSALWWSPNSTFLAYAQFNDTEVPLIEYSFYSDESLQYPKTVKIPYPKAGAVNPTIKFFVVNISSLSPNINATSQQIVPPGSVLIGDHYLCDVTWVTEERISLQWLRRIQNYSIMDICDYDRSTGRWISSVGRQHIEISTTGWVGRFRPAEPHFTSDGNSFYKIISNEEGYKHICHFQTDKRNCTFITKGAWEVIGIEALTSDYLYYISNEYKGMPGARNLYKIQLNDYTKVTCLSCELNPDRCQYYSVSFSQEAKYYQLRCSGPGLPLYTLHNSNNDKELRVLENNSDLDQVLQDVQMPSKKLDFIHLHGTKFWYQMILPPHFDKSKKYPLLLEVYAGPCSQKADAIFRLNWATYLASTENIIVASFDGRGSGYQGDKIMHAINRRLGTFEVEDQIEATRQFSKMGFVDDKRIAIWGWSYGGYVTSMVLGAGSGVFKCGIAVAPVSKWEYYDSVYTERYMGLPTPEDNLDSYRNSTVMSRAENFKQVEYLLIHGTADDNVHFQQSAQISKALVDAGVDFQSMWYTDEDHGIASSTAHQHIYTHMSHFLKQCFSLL

Structure (SMILES) | EC50 (Human alphaherpesvirus 2) [µM] | EC50 (Human alphaherpesvirus 1 [1]) [µM] | solubility [2] [mg/mL] | bioavailability [3] [%] | Drug metabolism (Dipeptidyl peptidase 4 [4]) | Drug metabolism [5] | Drug metabolism (Dipeptidyl peptidase 4 [6]) | Drug metabolism [7] | Drug metabolism (Dipeptidyl peptidase 4 [8]) | Stability [9] | EC50 (Human alphaherpesvirus 1 [10]) [µM] | Drug metabolism (Dipeptidyl peptidase 4 [11]) | Drug metabolism (Dipeptidyl peptidase 4 [12])
Nc1nc2c(ncn2COCCO)c(=O)[nH]1 [ACYCLOVIR] | 0.5 | 18 | 1.29 (≈ 5.73 mM) | 10 |  |  |  |  |  |  |  |  | 
CC(C)[C@H](N)C(=O)OCCOCn1cnc2c(=O)[nH]c(N)nc21 [VALACYCLOVIR] |  |  |  |  | Active | Active | Active |  |  |  |  |  | 
CC(C)[C@H](N)C(=O)N1CCC[C@H]1C(=O)N[C@H](C(=O)N1CCC[C@H]1C(=O)Nc1nc2c(ncn2COCCO)c(=O)[nH]1)C(C)C (H-VPVP-X1) | 4.9 | 73 | 22.9 (≈ 37 mM) |  |  |  |  | Active | Active | Stable | 1.8 | Active | 
CC(C)[C@H](N)C(=O)N1CCC[C@H]1C(=O)N[C@H](C(=O)OCCOCn1cnc2c(=O)[nH]c(N)nc21)C(C)C | 1.6 | 32 | 12.2 (≈ 23.4 mM) |  |  |  |  | Not Active |  | Stable | 0.6 |  | Active
